Assay results published in US6573218B1, “Fused-benzene derivatives useful as herbicides” (Ishihara Sangyo Kaisha, Ltd., priority 1998, dated 2003).

Columns and labels:
Format in all cases: in vivo
[1] = system: barnyardgrass (Echinochloa crus-galli, ECHCG); test: Pre-emerge greenhouse herbicide test; conditions: 14 days after application, scale 0-100 (0 no damage, 100 complete death)
From the text: (§1) A standard greenhouse herbicide activity screening system was used to evaluate the herbicidal efficacy and crop safety of these test compounds. Seven broadleaf weed species including redroot pigweed (Amaranthus retroflexus, AMARE), velvetleaf (Abutilon theophrasti, ABUTH), sicklepod (Cassia obtusifolia, CASOB), ivyleaf morningglory (Ipomoea hederacea, IPOHE), lambsquarters (Chenopodium album, CHEAL), common ragweed (Ambrosia artemisiifolia L., AMBEL), and cocklebur (Xanthium strumarium, XANST) were used as test species. Four grass weed species including green foxtail (Setaria viridis, SETVI), barnyardgrass (Echinochloa crus-galli, ECHCG), johnsongrass (Sorghum halepense, SORHA), and large crabgrass (Digitaria sanguinalis, DIGSA) were also used. In addition, three crop species, field corn (Zea mays L., var. Dekalb 527, CORN), soybean (Glycine max L., var. Pella 86, SOY), and upland rice (Ory0a sp., var.Tebonnet, RICE) were included.
(§2) All plants were grown in 10 cm square plastic pots which were filled with a sandy loam soil mix. For pre-emerge tests, seeds were planted one day prior to application of the test compounds. For post-emerge tests, seeds were planted 8-21 days prior to the test to allow emergence and good foliage development prior to application of the test substances. At the time of the post-emerge application, plants of all species were usually at the 2-3 leaf stage of development.
(§3) All test compounds were dissolved in acetone and applied to the test units in a volume of 187 l/ha. Test materials were applied at rates ranging from 15 g ai/ha to 1000 g ai/ha using a track sprayer equipped with a TJ8001E even flow flat fan spray nozzle. Plants were arranged on a shelf so that the top of the canopy (post-emerge) or top of the soil surface (pre-emerge) was 40-45 cm below the nozzle. Pressurized air was used to force the test solution through the nozzle as it was mechanically advanced over the top of all test plants/pots. This application simulates a typical commercial field herbicide application.
(§4) In the post-emerge test, a commercial non-ionic surfactant was also included (0.25% v/v) to enhance wetting of the leaf surfaces of target plants. Immediately after application, test units of the pre-emerge applications were watered at the soil surface to incorporate the test materials.
(§5) At 14 days after application of the test materials, phytotoxicity ratings were recorded. A rating scale of 0-100 was used as previously described in Research Methods in Weed Science, 2nd edition, B. Truelove, Ed., Southern Weed Science Society, Auburn University, Auburn, Ala., 1977. Briefly, “0” corresponds to no damage and “100” corresponds to complete death of all plants in the test unit. This scale was used both to determine efficacy against weed species and damage to crop species. Herbicide activity data for various compounds of this invention, which are shown by compound No. in Tables 1-14, are shown in Tables 16 and 17.

[2] = system: green foxtail (Setaria viridis, SETVI); test: Pre-emerge greenhouse herbicide test; conditions: 14 days after application, scale 0-100 (0 no damage, 100 complete death)
From the text: as §1, §2, §3, §4, §5

[3] = system: ivyleaf morningglory (Ipomoea hederacea, IPOHE); test: Pre-emerge greenhouse herbicide test; conditions: 14 days after application, scale 0-100 (0 no damage, 100 complete death)
From the text: as §1, §2, §3, §4, §5

[4] = system: johnsongrass (Sorghum halepense, SORHA); test: Pre-emerge greenhouse herbicide test; conditions: 14 days after application, scale 0-100 (0 no damage, 100 complete death)
From the text: as §1, §2, §3, §4, §5

[5] = system: lambsquarters (Chenopodium album, CHEAL); test: Pre-emerge greenhouse herbicide test; conditions: 14 days after application, scale 0-100 (0 no damage, 100 complete death)
From the text: as §1, §2, §3, §4, §5

[6] = system: large crabgrass (Digitaria sanguinalis, DIGSA); test: Pre-emerge greenhouse herbicide test; conditions: 14 days after application, scale 0-100 (0 no damage, 100 complete death)
From the text: as §1, §2, §3, §4, §5

[7] = system: redroot pigweed (Amaranthus retroflexus, AMARE); test: Pre-emerge greenhouse herbicide test; conditions: 14 days after application, scale 0-100 (0 no damage, 100 complete death)
From the text: as §1, §2, §3, §4, §5

[8] = system: sicklepod (Cassia obtusifolia, CASOB); test: Pre-emerge greenhouse herbicide test; conditions: 14 days after application, scale 0-100 (0 no damage, 100 complete death)
From the text: as §1, §2, §3, §4, §5

[9] = system: velvetleaf (Abutilon theophrasti, ABUTH); test: Pre-emerge greenhouse herbicide test; conditions: 14 days after application, scale 0-100 (0 no damage, 100 complete death)
From the text: as §1, §2, §3, §4, §5

[10] = system: field corn (Zea mays L., var. Dekalb 527, CORN); test: Pre-emerge greenhouse crop damage test
From the text: as §1, §2, §3, §4, §5

[11] = system: soybean (Glycine max L., var. Pella 86, SOY); test: Pre-emerge greenhouse crop damage test
From the text: as §1, §2, §3, §4, §5

[12] = system: upland rice (Ory0a sp., var.Tebonnet, RICE); test: Pre-emerge greenhouse crop damage test; conditions: in vivo
From the text: as §1, §2, §3, §4, §5

[13] = system: barnyardgrass (Echinochloa crus-galli, ECHCG); test: Post-emerge greenhouse herbicide test; conditions: 14 days after application
From the text: as §1, §2, §3, §4, §5

[14] = system: green foxtail (Setaria viridis, SETVI); test: Post-emerge greenhouse herbicide test; conditions: 14 days after application
From the text: as §1, §2, §3, §4, §5

[15] = system: ivyleaf morningglory (Ipomoea hederacea, IPOHE); test: Post-emerge greenhouse herbicide test; conditions: 14 days after application
From the text: as §1, §2, §3, §4, §5

[16] = system: johnsongrass (Sorghum halepense, SORHA); test: Post-emerge greenhouse herbicide test; conditions: 14 days after application
From the text: as §1, §2, §3, §4, §5

[17] = system: lambsquarters (Chenopodium album, CHEAL); test: Post-emerge greenhouse herbicide test; conditions: 14 days after application
From the text: as §1, §2, §3, §4, §5

[18] = system: large crabgrass (Digitaria sanguinalis, DIGSA); test: Post-emerge greenhouse herbicide test; conditions: 14 days after application
From the text: as §1, §2, §3, §4, §5

[19] = system: redroot pigweed (Amaranthus retroflexus, AMARE); test: Post-emerge greenhouse herbicide test; conditions: 14 days after application
From the text: as §1, §2, §3, §4, §5

[20] = system: sicklepod (Cassia obtusifolia, CASOB); test: Post-emerge greenhouse herbicide test; conditions: 14 days after application
From the text: as §1, §2, §3, §4, §5

[21] = system: velvetleaf (Abutilon theophrasti, ABUTH); test: Post-emerge greenhouse herbicide test; conditions: 14 days after application
From the text: as §1, §2, §3, §4, §5

[22] = system: field corn (Zea mays L., var. Dekalb 527, CORN); test: Post-emerge greenhouse crop damage test
From the text: as §1, §2, §3, §4, §5

[23] = system: soybean (Glycine max L., var. Pella 86, SOY); test: Post-emerge greenhouse crop damage test
From the text: as §1, §2, §3, §4, §5

[24] = system: upland rice (Ory0a sp., var.Tebonnet, RICE); test: Post-emerge greenhouse crop damage test
From the text: as §1, §2, §3, §4, §5

[25] = var. Dekalb 527, field corn (Zea mays L.), in vivo, 14 days
[26] = var. Pella 86, soybean (Glycine max L.), in vivo, 14 days
[27] = var. Tebonnet, upland rice (Ory0a sp.), 14 days
[28] = var. Tebonnet, upland rice (Ory0a sp.), in vivo, 14 days
[29] = pre-emerge, 250 g ai/ha, 14 days after application, scale 0-100 (0 no damage, 100 complete death)
[30] = 250 g ai/ha, post-emerge, 14 days after application

Row | SMILES | Pre-emerge Herbicidal Activity CORN (crop damage rating) [10, 25] | Pre-emerge Herbicidal Activity SOY (crop damage rating) [11, 26] | Pre-emerge Herbicidal Activity RICE (crop damage rating) [12, 27] | Post-emerge crop damage CORN (phytotoxicity rating 0-100) [22, 25] | Post-emerge crop damage SOY (phytotoxicity rating 0-100) [23, 26] | Post-emerge crop damage RICE (phytotoxicity rating 0-100) [24, 28] | Pre-emerge Herbicidal Activity ECHCG (phytotoxicity rating) ([1]; 250 g ai/ha) | Pre-emerge Herbicidal Activity SETVI (phytotoxicity rating) ([2]; 250 g ai/ha) | Pre-emerge Herbicidal Activity IPOHE (phytotoxicity rating) ([3]; 250 g ai/ha) | Pre-emerge Herbicidal Activity SORHA (phytotoxicity rating) ([4]; 250 g ai/ha) | Pre-emerge Herbicidal Activity CHEAL (phytotoxicity rating) ([5]; 250 g ai/ha) | Pre-emerge Herbicidal Activity DIGSA (phytotoxicity rating) ([6]; 250 g ai/ha) | Pre-emerge Herbicidal Activity AMARE (phytotoxicity rating) ([7]; 250 g ai/ha) | Pre-emerge Herbicidal Activity CASOB (phytotoxicity rating) ([8]; 250 g ai/ha) | Pre-emerge Herbicidal Activity ABUTH (phytotoxicity rating) ([9]; 250 g ai/ha) | Post-emerge Herbicidal Activity ECHCG (phytotoxicity rating 0-100) ([13]; 250 g ai/ha) | Post-emerge Herbicidal Activity SETVI (phytotoxicity rating 0-100) ([14]; 250 g ai/ha) | Post-emerge Herbicidal Activity IPOHE (phytotoxicity rating 0-100) ([15]; 250 g ai/ha) | Post-emerge Herbicidal Activity SORHA (phytotoxicity rating 0-100) ([16]; 250 g ai/ha) | Post-emerge Herbicidal Activity CHEAL (phytotoxicity rating 0-100) ([17]; 250 g ai/ha) | other results
1 | Cn1c(C(F)(F)F)cc(=O)n(-c2c(F)cc(Cl)c3c2NCCO3)c1=O [Compound 2-1, 3-(8-Chloro-6-fluoro-3,4-dihydro-2H-1,4-benzoxazin-5-yl)-1-methyl-6-trifluoromethyl-2,4(1H,3H)-pyrimidindione] | 20 | 50 | 70 | 20 | 90 | 40 | – | – | – | – | – | – | – | – | – | – | – | – | – | – | Pre-emerge Herbicidal Activity ECHCG (phytotoxicity rating) ([1]; 125 g ai/ha): 50; Pre-emerge Herbicidal Activity SETVI (phytotoxicity rating) ([2]; 125 g ai/ha): 100; Pre-emerge Herbicidal Activity IPOHE (phytotoxicity rating) ([3]; 125 g ai/ha): 50; Pre-emerge Herbicidal Activity SORHA (phytotoxicity rating) ([4]; 125 g ai/ha): 95; Pre-emerge Herbicidal Activity CHEAL (phytotoxicity rating) ([5]; 125 g ai/ha): 100; Pre-emerge Herbicidal Activity DIGSA (phytotoxicity rating) ([6]; 125 g ai/ha): 100; Pre-emerge Herbicidal Activity AMARE (phytotoxicity rating) ([7]; 125 g ai/ha): 100; Pre-emerge Herbicidal Activity CASOB (phytotoxicity rating) ([8]; 125 g ai/ha): 40; Pre-emerge Herbicidal Activity ABUTH (phytotoxicity rating) ([9]; 125 g ai/ha): 100; Post-emerge Herbicidal Activity ECHCG (phytotoxicity rating 0-100) ([13]; 125 g ai/ha): 10; Post-emerge Herbicidal Activity SETVI (phytotoxicity rating 0-100) ([14]; 125 g ai/ha): 50; Post-emerge Herbicidal Activity IPOHE (phytotoxicity rating 0-100) ([15]; 125 g ai/ha): 100; Post-emerge Herbicidal Activity SORHA (phytotoxicity rating 0-100) ([16]; 125 g ai/ha): 0; Post-emerge Herbicidal Activity CHEAL (phytotoxicity rating 0-100) ([17]; 125 g ai/ha): 100; Post-emerge Herbicidal Activity DIGSA (phytotoxicity rating 0-100) ([18]; 125 g ai/ha): 0; Post-emerge Herbicidal Activity AMARE (phytotoxicity rating 0-100) ([19]; 125 g ai/ha): 90; Post-emerge Herbicidal Activity CASOB (phytotoxicity rating 0-100) ([20]; 125 g ai/ha): 80; Post-emerge Herbicidal Activity ABUTH (phytotoxicity rating 0-100) ([21]; 125 g ai/ha): 100
2 | Cn1c(C(F)(F)F)cc(=O)n(-c2c(F)cc(Cl)c3c2NC(=O)CO3)c1=O [Compound 4-1] | – | – | – | – | – | – | 70 | 100 | 100 | 95 | 100 | 100 | 100 | 100 | 100 | 30 | 10 | 100 | 40 | 100 | Pre-emerge Herbicidal Activity CORN (crop damage rating) [10, 29]: 90; Pre-emerge Herbicidal Activity SOY (crop damage rating) [11, 29]: 100; Pre-emerge Herbicidal Activity RICE (crop damage rating) [12]: 90; Post-emerge Herbicidal Activity DIGSA (phytotoxicity rating 0-100) ([18]; 250 g ai/ha): 30; Post-emerge Herbicidal Activity AMARE (phytotoxicity rating 0-100) ([19]; 250 g ai/ha): 100; Post-emerge Herbicidal Activity CASOB (phytotoxicity rating 0-100) ([20]; 250 g ai/ha): 80; Post-emerge Herbicidal Activity ABUTH (phytotoxicity rating 0-100) ([21]; 250 g ai/ha): 100; Post-emerge crop damage CORN (phytotoxicity rating 0-100) [22, 30]: 70; Post-emerge crop damage SOY (phytotoxicity rating 0-100) [23, 30]: 100; Post-emerge crop damage RICE (phytotoxicity rating 0-100) [24, 30]: 65
3 | CC1Oc2c(Cl)cc(F)c(-n3c(=O)cc(C(F)(F)F)n(C)c3=O)c2NC1=O (stereo not drawn) [Compound 4-3, 3-(8-Chloro-6-fluoro-2-methyl-2H-1,4-benzoxazin-3-one-5-yl)-1-methyl-6-trifluoromethyl-2,4(1H,3H)-pyrimidindione] | 99 | 100 | 99 | 100 | 100 | 80 | 99 | 100 | 100 | 100 | 100 | 100 | 100 | 100 | 100 | 80 | 50 | 100 | 90 | 100 | Post-emerge Herbicidal Activity DIGSA (phytotoxicity rating 0-100) ([18]; 250 g ai/ha): 70; Post-emerge Herbicidal Activity AMARE (phytotoxicity rating 0-100) ([19]; 250 g ai/ha): 100; Post-emerge Herbicidal Activity CASOB (phytotoxicity rating 0-100) ([20]; 250 g ai/ha): 95; Post-emerge Herbicidal Activity ABUTH (phytotoxicity rating 0-100) ([21]; 250 g ai/ha): 100
